Measured values as given in PubChem BioAssay (NCI).
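Method: 48-hour compound exposure of cells in 96-well plates, five concentrations, linear interpolation of endpoints. GI50 marks 50% less growth. The concentration for full growth arrest is given as TGI.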

Key:
Test in all cases: NCI anticancer screen, dose series, 48 h
[1] = test system: HL-60(TB) leukemia
[2] = test system: T-47D breast
[3] = test system: SK-MEL-2 melanoma
[4] = test system: COLO 205 colon
[5] = test system: BT-549 breast
[6] = test system: U251 CNS
[7] = test system: SN12C renal
[8] = test system: A498 renal
[9] = test system: OVCAR-3 ovarian
[10] = test system: SR leukemia
[11] = test system: EKVX NSCLC
[12] = test system: RPMI-8226 leukemia
[13] = test system: UACC-62 melanoma
[14] = test system: MDA-MB-231 breast
[15] = test system: DU-145 prostate
[16] = test system: HCT-15 colon
[17] = test system: A549 NSCLC
[18] = test system: NCI/ADR-RES ovarian
[19] = test system: PC-3 prostate
[20] = test system: UO-31 renal
[21] = test system: ACHN renal
[22] = test system: RXF 393 renal
[23] = test system: HCC-2998 colon
[24] = test system: NCI-H226 lung
[25] = test system: CAKI-1 renal
[26] = test system: OVCAR-8 ovarian
[27] = test system: SW-620 colon
[28] = test system: SK-OV-3 ovarian
[29] = test system: HOP-92 NSCLC
[30] = test system: MALME-3M melanoma
[31] = test system: SF-295 CNS
[32] = test system: CCRF-CEM leukemia
[33] = test system: SNB-19 CNS
[34] = test system: OVCAR-5 ovarian
[35] = test system: OVCAR-4 ovarian
[36] = test system: NCI-H522 lung
[37] = test system: NCI-H23 lung
[38] = test system: SF-268 CNS
[39] = test system: MOLT-4 leukemia
[40] = test system: SK-MEL-5 melanoma
[41] = test system: SNB-75 CNS
[42] = test system: HOP-62 NSCLC
[43] = test system: MDA-MB-435
[44] = test system: LOX IMVI melanoma
[45] = test system: NCI-H460 lung
[46] = test system: TK-10 renal
[47] = test system: MCF7 breast
[48] = test system: 786-0 renal
[49] = test system: M14 melanoma
[50] = test system: SF-539 CNS
[51] = test system: HS 578T breast
[52] = test system: SK-MEL-28 melanoma
[53] = test system: KM12 colon
[54] = test system: K-562 leukemia
[55] = test system: HCT-116 colon
[56] = test system: UACC-257 melanoma
[57] = test system: HT29 colon
[58] = test system: IGROV1 ovarian

Work on Nc1ccccc1/C=N\Nc1ccccc1 yielded a GI50 [1] of 1.78 µM, a TGI [1] of 29.3 µM and a GI50 [2] of 5.04 µM. It also gave a TGI [2] of over 100 µM, a GI50 [3] of 65.4 µM and a TGI [3] of over 100 µM. The GI50 [4] was 25.2 µM, the TGI [4] was over 100 µM and the GI50 [5] was 74.1 µM. The TGI [5] was over 100 µM, the GI50 [6] was over 100 µM and the TGI [6] was over 100 µM. It also gave a GI50 [7] of over 100 µM, a TGI [7] of over 100 µM and a GI50 [8] of over 100 µM. It also gave a TGI [8] of over 100 µM, a GI50 [9] of 36.2 µM and a TGI [9] of over 100 µM. The GI50 [10] was 26.6 µM, the TGI [10] was over 100 µM and the GI50 [11] was 77.1 µM. For the same molecule, the TGI [11] was over 100 µM, the GI50 [12] was over 100 µM and the TGI [12] was over 100 µM. For the same molecule, the GI50 [13] was 0.353 µM, the TGI [13] was over 100 µM and the GI50 [14] was 8.23 µM. The TGI [14] was over 100 µM, the GI50 [15] was over 100 µM and the TGI [15] was over 100 µM. For the same molecule, the GI50 [16] was 5.13 µM, the TGI [16] was over 100 µM and the GI50 [17] was 4.7 µM. The TGI [17] was over 100 µM, the GI50 [18] was 5.8 µM and the TGI [18] was over 100 µM. For the same molecule, the GI50 [19] was 3.08 µM, the TGI [19] was over 100 µM and the GI50 [20] was 2.43 µM. For the same molecule, the TGI [20] was over 100 µM, the GI50 [21] was 3.01 µM and the TGI [21] was over 100 µM. For the same molecule, the GI50 [22] was over 100 µM, the TGI [22] was over 100 µM and the GI50 [23] was 3.16 µM. It also gave a TGI [23] of over 100 µM, a GI50 [24] of over 100 µM and a TGI [24] of over 100 µM. The GI50 [25] was 1.02 µM, the TGI [25] was over 100 µM and the GI50 [26] was over 100 µM. For the same molecule, the TGI [26] was over 100 µM, the GI50 [27] was 11.5 µM and the TGI [27] was over 100 µM. For the same molecule, the GI50 [28] was over 100 µM, the TGI [28] was over 100 µM and the GI50 [29] was 6.27 µM. The TGI [29] was over 100 µM, the GI50 [30] was over 100 µM and the TGI [30] was over 100 µM. For the same molecule, the GI50 [31] was 1.63 µM, the TGI [31] was over 100 µM and the GI50 [32] was 0.431 µM. It also gave a TGI [32] of over 100 µM, a GI50 [33] of over 100 µM and a TGI [33] of over 100 µM. It also gave a GI50 [34] of over 100 µM, a TGI [34] of over 100 µM and a GI50 [35] of 3.91 µM. The TGI [35] was over 100 µM, the GI50 [36] was over 100 µM and the TGI [36] was over 100 µM. It also gave a GI50 [37] of over 100 µM, a TGI [37] of over 100 µM and a GI50 [38] of over 100 µM. The TGI [38] was over 100 µM, the GI50 [39] was 26.3 µM and the TGI [39] was over 100 µM. For the same molecule, the GI50 [40] was 2.69 µM, the TGI [40] was 7.98 µM and the GI50 [41] was over 100 µM. It also gave a TGI [41] of over 100 µM, a GI50 [42] of over 100 µM and a TGI [42] of over 100 µM. For the same molecule, the GI50 [43] was 4.5 µM, the TGI [43] was over 100 µM and the GI50 [44] was 1.29 µM. It also gave a TGI [44] of over 100 µM, a GI50 [45] of 2.35 µM and a TGI [45] of over 100 µM. The GI50 [46] was over 100 µM, the TGI [46] was over 100 µM and the GI50 [47] was 8.92 µM. The TGI [47] was over 100 µM, the GI50 [48] was 2.69 µM and the TGI [48] was over 100 µM. It also gave a GI50 [49] of 4.05 µM, a TGI [49] of over 100 µM and a GI50 [50] of 1.27 µM. The TGI [50] was 7.04 µM, the GI50 [51] was over 100 µM and the TGI [51] was over 100 µM. It also gave a GI50 [52] of over 100 µM, a TGI [52] of over 100 µM and a GI50 [53] of 0.602 µM. For the same molecule, the TGI [53] was over 100 µM, the GI50 [54] was 3.24 µM and the TGI [54] was over 100 µM. The GI50 [55] was over 100 µM, the TGI [55] was over 100 µM and the GI50 [56] was 51.5 µM. For the same molecule, the TGI [56] was over 100 µM, the GI50 [57] was over 100 µM and the TGI [57] was over 100 µM. For the same molecule, the GI50 [58] was over 100 µM and the TGI [58] was over 100 µM.
